Source: PubChem BioAssay (NCI)
Several values for one entry are separate records, joined by “and”; a condition that tells them apart may be missing. Equal entries are not always repeated.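 Test compounds were applied to cells in 96-well plates for 48 hours at 5 doses. GI50 = concentration required for 50% inhibition of growth. TGI denotes the concentration required for complete inhibition of growth.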

Columns and labels:
Assay in all cases: NCI anticancer screen, dose series, 48 h
[1] = test system: MDA-MB-468 breast
[2] = test system: 786-0 renal
[3] = test system: A498 renal
[4] = test system: A549 NSCLC
[5] = test system: ACHN renal
[6] = test system: BT-549 breast
[7] = test system: CAKI-1 renal
[8] = test system: COLO 205 colon
[9] = test system: DU-145 prostate
[10] = test system: EKVX NSCLC
[11] = test system: HCC-2998 colon
[12] = test system: HCT-116 colon
[13] = test system: HCT-15 colon
[14] = test system: HL-60(TB) leukemia
[15] = test system: HOP-62 NSCLC
[16] = test system: HOP-92 NSCLC
[17] = test system: HS 578T breast
[18] = test system: HT29 colon
[19] = test system: K-562 leukemia
[20] = test system: KM12 colon
[21] = test system: LOX IMVI melanoma
[22] = test system: M14 melanoma
[23] = test system: MALME-3M melanoma
[24] = test system: MCF7 breast
[25] = test system: MDA-MB-231 breast
[26] = test system: MDA-MB-435
[27] = test system: MOLT-4 leukemia
[28] = test system: NCI-H226 lung
[29] = test system: NCI-H23 lung
[30] = test system: NCI-H460 lung
[31] = test system: NCI-H522 lung
[32] = test system: OVCAR-3 ovarian
[33] = test system: OVCAR-4 ovarian
[34] = test system: OVCAR-5 ovarian
[35] = test system: OVCAR-8 ovarian
[36] = test system: PC-3 prostate
[37] = test system: RPMI-8226 leukemia
[38] = test system: RXF 393 renal
[39] = test system: SF-268 CNS
[40] = test system: SF-295 CNS
[41] = test system: SF-539 CNS
[42] = test system: SK-MEL-2 melanoma
[43] = test system: SK-MEL-28 melanoma
[44] = test system: SK-MEL-5 melanoma
[45] = test system: SK-OV-3 ovarian
[46] = test system: SN12C renal
[47] = test system: SNB-19 CNS
[48] = test system: SNB-75 CNS
[49] = test system: SR leukemia
[50] = test system: SW-620 colon
[51] = test system: T-47D breast
[52] = test system: TK-10 renal
[53] = test system: U251 CNS
[54] = test system: UACC-257 melanoma
[55] = test system: UACC-62 melanoma

## CN(C)c1ncc(-c2ccc(C(F)(F)F)cc2)c(NC2CCCCCC2)n1
[1]
  GI50: 14.3 µM
  TGI: 37.1 µM

## CC(C)CC(=O)Nc1n[nH]c2c1CN(C(=O)C1CCN(C)CC1)C2(C)C
[1]
  GI50: 1.13 µM
  TGI: 5.18 µM

## CCC(=C(c1ccc(OCCN(C)C)cc1)c1ccc(OCCN(C)C)cc1)c1ccc(Cl)cc1
[1]
  GI50: 2.95 µM
  TGI: 6.7 µM

## O=C(NCCCNc1cc(-c2cn(-c3ccccc3)nc2-c2cccc(O)c2)ccn1)Nc1ccc(F)cc1
[1]
  GI50: 1.18 µM
  TGI: 4.66 µM

## CN1CCN(c2ccc(Nc3nc(N)c(C(=O)c4ccc5c(c4)OCCO5)s3)cc2)CC1
[1]
  GI50: 5.56 µM
  TGI: > 17.6 µM

## Cc1cccc(/C=C/C(=O)Nc2ncc(Cc3cccc(C)c3)s2)c1
[1]
  GI50: 3.77 µM
  TGI: > 100 µM

## O=c1c(O)cccc2cc(O)c(O)c(O)c12
[1]
  GI50: 47.6 µM
  TGI: > 100 µM

## Cc1nccc2c3ccc(OCc4cn(-c5ccc(Cl)cc5)nn4)cc3n(CCCc3ccccc3)c12
[1]
  GI50: 6.07 µM
  TGI: 19.1 µM

## COC(=O)Nc1nc2ccc(C(=O)c3ccc(N(C)C4COC4)cc3)cc2[nH]1
[1]
  GI50: 0.224 µM
  TGI: > 100 µM

## COC1=CC(=O)C(OC)=C(OC)C1=O
[1]
  GI50: 1.61 µM
  TGI: 3.16 µM

## Cc1cc2cn3c4ccc(O)cc4[nH]c(=O)c3c2cc1C
[1]
  GI50: 0.178 µM
  TGI: 0.772 µM

## O=C(O)CCC/C=C\C[C@H]1C=CC(=O)/C1=C/C[C@@H](O)CCc1cccc(C(F)(F)F)c1
[1]
  GI50: 1.24 µM
  TGI: 3.27 µM

## C[C@@H]1Cc2c([nH]c3ccccc23)[C@@H](c2c(F)cc(NC3CN(CCCF)C3)cc2F)N1CC(F)(F)CO
[1]
  GI50: 1.95 µM
  TGI: 4.86 µM

## CCCCCCCCCc1cc[n+](CC(=O)c2ccc([N+](=O)[O-])cc2)cc1
[1]
  GI50: 0.446 µM
  TGI: 1.75 µM

## Cc1cc(O)c(C2=NN(c3ccc(S(N)(=O)=O)cc3)C(c3ccc(N(C)C)cc3)C2)c(C)c1Cl (stereo unspecified)
[1]
  GI50: 17.1 µM
  TGI: 33.8 µM

## Fc1ccc(-c2ncn(C3CCNCC3)c2-c2ccnc(Oc3ccc(F)c(F)c3)n2)cc1
[1]
  GI50: 2.34 µM
  TGI: 5.86 µM

## CS(=O)(=O)CCNCc1ccc(-c2ccc3ncnc(Nc4ccc(OCc5cccc(F)c5)c(C(F)(F)F)c4)c3c2)o1
[1]
  GI50: 1.42 µM
  TGI: 6.09 µM

## Oc1cccc2ccc(-c3nnc(SCc4ccc(O)c5ncccc45)n3-c3ccccc3)nc12
[1]
  GI50: 0.813 µM
  TGI: 9.52 µM

## N#CSc1c[nH]c2ccc(/C=C/C(=O)/C=C(/C=C/c3ccc4[nH]cc(SC#N)c4c3)OB(F)F)cc12
[1]
  GI50: 0.91 µM
  TGI: 4.09 µM

## CCn1cc(-c2ccnc3[nH]ccc23)c(-c2cccc(NC(=O)Nc3ccc(OCc4ccccc4)cc3)c2)n1
[1]
  GI50: 18.2 µM
  TGI: > 25 µM

## CCN(CC)c1ccc2c(c1)Oc1nc(N)c(C#N)c(N)c1C2Sc1ccc(OC)cc1 (stereo unspecified)
[1]
  GI50: 1.85 µM
  TGI: 3.51 µM

## CN1C(=O)[C@@H](NC(=O)[C@H](CCC(F)(F)F)[C@H](CCC(F)(F)F)C(N)=O)N=C(c2ccccc2)c2ccccc21
[1]
  GI50: 21.2 µM
  TGI: > 100 µM

## COc1cc(OC)c(/C=C/S(=O)(=O)Cc2ccc(OC)c(NC(=O)CCC(=O)NO)c2)c(OC)c1
[1]
  GI50: 0.0549 µM
  TGI: > 100 µM

## CC(=O)N1c2ccccc2NC2=C(C(=O)N(Cc3ccccc3)C2(C)C)C1c1ccco1 (stereo unspecified)
[1]
  GI50: 0.0897 µM
  TGI: > 25 µM

## Nc1ncnc2c1c(-c1cccc(OCc3ccccc3)c1)cn2C1CC(CN2CCC2)C1 (stereo unspecified)
[1]
  GI50: 1.96 µM and 2.14 µM
  TGI: 5.98 µM and 8.79 µM

## COc1cc(C2CC(c3ccc(Cl)cc3)=Nc3c(N)nc(N)nc3N2)ccc1Oc1nc(Nc2ccc(F)cc2)nc(N(C)C)n1 (stereo unspecified)
[2]
  GI50: > 100 µM
  TGI: > 100 µM
[3]
  GI50: > 100 µM
  TGI: > 100 µM
[4]
  GI50: > 100 µM
  TGI: > 100 µM
[5]
  GI50: > 100 µM
  TGI: > 100 µM
[6]
  GI50: 35.5 µM
  TGI: > 100 µM
[7]
  GI50: 3.38 µM
  TGI: > 100 µM
[8]
  GI50: > 100 µM
  TGI: > 100 µM
[9]
  GI50: > 100 µM
  TGI: > 100 µM
[10]
  GI50: > 100 µM
  TGI: > 100 µM
[11]
  GI50: 45.3 µM
  TGI: > 100 µM
[12]
  GI50: 12.5 µM
  TGI: > 100 µM
[13]
  GI50: 76.6 µM
  TGI: > 100 µM
[14]
  GI50: 44.7 µM
  TGI: > 100 µM
[15]
  GI50: > 100 µM
  TGI: > 100 µM
[16]
  GI50: 3 µM
  TGI: > 100 µM
[17]
  GI50: 84.8 µM
  TGI: > 100 µM
[18]
  GI50: 29.4 µM
  TGI: > 100 µM
[19]
  GI50: 4.5 µM
  TGI: > 100 µM
[20]
  GI50: 40.1 µM
  TGI: > 100 µM
[21]
  GI50: 47.8 µM
  TGI: > 100 µM
[22]
  GI50: > 100 µM
  TGI: > 100 µM
[23]
  GI50: > 100 µM
  TGI: > 100 µM
[24]
  GI50: 9.91 µM
  TGI: > 100 µM
[25]
  GI50: 6.73 µM
  TGI: > 100 µM
[26]
  GI50: > 100 µM
  TGI: > 100 µM
[1]
  GI50: 17.8 µM
  TGI: > 100 µM
[27]
  GI50: 8.54 µM
  TGI: > 100 µM
[28]
  GI50: > 100 µM
  TGI: > 100 µM
[29]
  GI50: > 100 µM
  TGI: > 100 µM
[30]
  GI50: 42.3 µM
  TGI: > 100 µM
[31]
  GI50: > 100 µM
  TGI: > 100 µM
[32]
  GI50: > 100 µM
  TGI: > 100 µM
[33]
  GI50: 18.9 µM
  TGI: > 100 µM
[34]
  GI50: > 100 µM
  TGI: > 100 µM
[35]
  GI50: > 100 µM
  TGI: > 100 µM
[36]
  GI50: 6.16 µM
  TGI: > 100 µM
[37]
  GI50: 26.4 µM
  TGI: > 100 µM
[38]
  GI50: 2.46 µM
  TGI: > 100 µM
[39]
  GI50: > 100 µM
  TGI: > 100 µM
[40]
  GI50: > 100 µM
  TGI: > 100 µM
[41]
  GI50: > 100 µM
  TGI: > 100 µM
[42]
  GI50: > 100 µM
  TGI: > 100 µM
[43]
  GI50: > 100 µM
  TGI: > 100 µM
[44]
  GI50: 17.2 µM
  TGI: 52 µM
[45]
  GI50: > 100 µM
  TGI: > 100 µM
[46]
  GI50: > 100 µM
  TGI: > 100 µM
[47]
  GI50: > 100 µM
  TGI: > 100 µM
[48]
  GI50: 3.24 µM
  TGI: > 100 µM
[49]
  GI50: 3.41 µM
  TGI: > 100 µM
[50]
  GI50: > 100 µM
  TGI: > 100 µM
[51]
  GI50: > 100 µM
  TGI: > 100 µM
[52]
  GI50: > 100 µM
  TGI: > 100 µM
[53]
  GI50: > 100 µM
  TGI: > 100 µM
[54]
  GI50: > 100 µM
  TGI: > 100 µM
[55]
  GI50: > 100 µM
  TGI: > 100 µM

## O=[N+]([O-])c1ccccc1NC1c2ccccc2Oc2ccccc21
[1]
  GI50: 2.21 µM
  TGI: 5.4 µM

## CCCc1cc2cc(-n3nc(CC)c4c3CC(C)(C)CC4=O)cc(NC3CCC(O)CC3)c2c(=O)[nH]1 (stereo unspecified)
[1]
  GI50: 0.212 µM
  TGI: > 100 µM

## Cc1cc(Nc2c3ccccc3nc3ccccc23)ccc1NS(C)(=O)=O
[1]
  GI50: 2.29 µM
  TGI: 8.81 µM

## CCCCCCCCCCCCCCCC[N+](C)(CCO)Cc1cnc[nH]1 (stereo unspecified)
[1]
  GI50: 0.396 µM
  TGI: 10.1 µM

## CN(C)C/C=C/C(=O)Nc1cc2c(Nc3ccc(F)c(Cl)c3F)ncnc2cc1OCCOC(F)F
[1]
  GI50: < 0.01 µM

## Nc1ccccc1NC(=O)c1ccc(CCCC(=O)Nc2ccc(C3CC3N)cc2)cc1 (stereo unspecified)
[1]
  GI50: 1.62 µM
  TGI: 4.53 µM

## O=C(/C=C/C=C/c1c(C2CC2)nc2ccccc2c1-c1ccc(F)cc1)c1cccs1
[1]
  GI50: 2.75 µM
  TGI: > 100 µM

## N#CC(C#N)N=Nc1ccc(Br)cc1
[1]
  GI50: 1.01 µM
  TGI: 5.1 µM

## COc1cc(Nc2ncc(F)c(Nc3ccc4c(n3)NC(=O)C(C)(C)O4)n2)cc(OC)c1OC
[1]
  GI50: 8.5 µM and 4.91 µM
  TGI: > 100 µM

## CN1CCN(c2cc(C(=O)Nc3cc4cc(-c5cnn(C)c5)ccc4cn3)ccn2)CC1
[1]
  GI50: 0.0348 µM
  TGI: 0.286 µM

## CS(=O)(=O)Nc1cccc(-c2cc(-c3ccccc3Cl)c(C#N)c(N)n2)c1
[1]
  GI50: 1.19 µM
  TGI: 7.75 µM
